Results reported in ChEMBL document CHEMBL4765323, “Design, synthesis, and biological evaluation of novel miconazole analogues containing selenium as potent antifungal agents” (Eur J Med Chem, 2020).
In brackets after ≈: the same amount, converted by molar mass.

Columns and labels:
[1] = test system: Pichia kudriavzevii; test: Antifungal activity against Candida krusei AS 2.1045 measured after 24 hrs by micro-broth dilution assay; assay type: functional
[2] = test system: Candida albicans; test: Inhibition of CYP51 in azole-resistant Candida albicans ATCC […] assessed as Lanosterol level at 0.03125 ug/ml incubated for 16 hrs by LC-MS analysis relative to control; design: scale not given: the % may be the effect or the level left; settings: dose 0.03125 µg/ml
[3] = test system: Candida albicans; test: Antibiofilm activity against FCZ-Resistant Candida albicans CPCC400616 assessed as sessile minimum inhibitory concentration of biofilm formation at 80% after 24 hrs by XTT assay; assay type: functional
[4] = test system: Candida albicans; test: Inhibition of CYP51 in azole-resistant Candida albicans ATCC […] assessed as Lanosterol level at 2 ug/ml incubated for 16 hrs by LC-MS analysis relative to control; design: scale not given: the % may be the effect or the level left; settings: dose 2.0 µg/ml
[5] = test system: Aspergillus fumigatus; test: Antifungal activity against Aspergillus fumigatus CGMCC 3.7795 measured after 72 hrs by micro-broth dilution assay; assay type: functional
[6] = test system: Candida albicans; test: Antibiofilm activity against FCZ-Resistant Candida albicans CPCC400616 assessed as sessile minimum inhibitory concentration of biofilm formation at 80% after 3 hrs by XTT assay; assay type: functional
[7] = Ratio of MFC for fungicidal activity against Candida albicans CPCC400616 to MIC for Antifungal activity against Candida albicans CPCC400616; assay type: functional; settings: time 24 hrs
[8] = test system: Candida albicans; test: Antibiofilm activity against FCZ-Resistant Candida albicans CPCC400616 assessed as sessile minimum inhibitory concentration of biofilm formation at 50% after 6 hrs by XTT assay; assay type: functional
[9] = test system: Candida albicans; test: Antibiofilm activity against FCZ-Resistant Candida albicans CPCC400616 assessed as sessile minimum inhibitory concentration of biofilm formation at 50% after 3 hrs by XTT assay; assay type: functional
[10] = test system: Candida albicans; test: Inhibition of CYP51 in azole-resistant Candida albicans ATCC […] assessed as Eburicol level at 0.03125 ug/ml incubated for 16 hrs by LC-MS analysis relative to control; design: scale not given: the % may be the effect or the level left; settings: dose 0.03125 µg/ml
[11] = test system: Candida albicans; test: Antibiofilm activity against FCZ-Resistant Candida albicans CPCC400616 assessed as sessile minimum inhibitory concentration of biofilm formation at 50% after 24 hrs by XTT assay; assay type: functional
[12] = test system: [Candida] zeylanoides; test: Antifungal activity against Candida zeylanoides CMGCC2.3739 measured after 24 hrs by micro-broth dilution assay; assay type: functional; settings: Dujonia zeylanoides
[13] = test system: Candida albicans; test: Antifungal activity against Candida albicans ATCC SC5314 measured after 24 hrs by micro-broth dilution assay; assay type: functional
[14] = test system: Candida albicans; test: Inhibition of CYP51 in azole-resistant Candida albicans ATCC […] assessed as Eburicol level at 2 ug/ml incubated for 16 hrs by LC-MS analysis relative to control; design: scale not given: the % may be the effect or the level left; settings: dose 2.0 µg/ml
[15] = test system: Candida albicans; test: Antibiofilm activity against FCZ-Resistant Candida albicans CPCC400616 assessed as sessile minimum inhibitory concentration of biofilm formation at 80% after 1.5 hrs by XTT assay; assay type: functional
[16] = test system: Candida albicans; test: Fungicidal activity against Candida albicans CPCC400616 measured after 48 hrs; assay type: functional
[17] = test system: Candida albicans; test: Inhibition of CYP51 in azole-resistant Candida albicans ATCC […] assessed as Obtusifoliol level at 8 ug/ml incubated for 16 hrs by LC-MS analysis relative to control; design: scale not given: the % may be the effect or the level left; settings: dose 8.0 µg/ml
[18] = test system: Candida albicans; test: Inhibition of CYP51 in azole-resistant Candida albicans ATCC […] assessed as Eburicol level at 0.125 ug/ml incubated for 16 hrs by LC-MS analysis relative to control; design: scale not given: the % may be the effect or the level left; settings: dose 0.125 µg/ml
[19] = test system: Candida albicans; test: Antibiofilm activity against FCZ-Resistant Candida albicans CPCC400616 assessed as sessile minimum inhibitory concentration of biofilm formation at 50% after 1.5 hrs by XTT assay; assay type: functional
[20] = test system: Candida albicans; test: Antibiofilm activity against FCZ-Resistant Candida albicans CPCC400616 assessed as sessile minimum inhibitory concentration of biofilm formation at 80% after 6 hrs by XTT assay; assay type: functional
[21] = test system: Candida albicans; test: Antifungal activity against Candida albicans CPCC400616 measured after 24 hrs by micro-broth dilution assay; assay type: functional
[22] = test system: Candida albicans; test: Inhibition of CYP51 in azole-resistant Candida albicans ATCC […] assessed as Eburicol level at 0.5 ug/ml incubated for 16 hrs by LC-MS analysis relative to control; design: scale not given: the % may be the effect or the level left; settings: dose 0.5 µg/ml
[23] = test system: Nakaseomyces glabratus; test: Antifungal activity against clinical isolate Candida glabrata measured after 24 hrs by micro-broth dilution assay; assay type: functional
[24] = test system: Candida albicans; test: Inhibition of CYP51 in azole-resistant Candida albicans ATCC […] assessed as inhibition of ergosterol biosynthesis by measuring ergosterol content at 8 ug/ml incubated for 16 hrs by LC-MS analysis relative to control; design: scale not given: the % may be the effect or the level left; settings: dose 8.0 µg/ml
[25] = Ratio of hemolysis activity in rabbit RBC to MIC for Candida albicans; assay type: toxicity; settings: rabbit red blood cells (RBC)
[26] = test system: Candida albicans; test: Inhibition of CYP51 in azole-resistant Candida albicans ATCC […] assessed as Lanosterol level at 0.125 ug/ml incubated for 16 hrs by LC-MS analysis relative to control; design: scale not given: the % may be the effect or the level left; settings: dose 0.125 µg/ml
[27] = test system: Candida albicans; test: Inhibition of CYP51 in azole-resistant Candida albicans ATCC […] assessed as Obtusifoliol level at 0.03125 ug/ml incubated for 16 hrs by LC-MS analysis relative to control; design: scale not given: the % may be the effect or the level left; settings: dose 0.03125 µg/ml
[28] = test system: Candida albicans; test: Inhibition of CYP51 in azole-resistant Candida albicans ATCC […] assessed as Lanosterol level at 0.5 ug/ml incubated for 16 hrs by LC-MS analysis relative to control; design: scale not given: the % may be the effect or the level left; settings: dose 0.5 µg/ml
[29] = test system: Candida albicans; test: Inhibition of CYP51 in azole-resistant Candida albicans ATCC […] assessed as ergosterol level at 0.125 ug/ml incubated for 16 hrs by LC-MS analysis relative to control; design: scale not given: the % may be the effect or the level left; settings: dose 0.125 µg/ml
[30] = test system: Candida albicans; test: Inhibition of CYP51 in azole-resistant Candida albicans ATCC […] assessed as Obtusifoliol level at 0.5 ug/ml incubated for 16 hrs by LC-MS analysis relative to control; design: scale not given: the % may be the effect or the level left; settings: dose 0.5 µg/ml
[31] = test system: Candida parapsilosis; test: Antifungal activity against Candida parapsilosis ATCC 22019 measured after 24 hrs by micro-broth dilution assay; assay type: functional; settings: Lodderomyces parapsilosis
[32] = test system: Candida albicans; test: Inhibition of CYP51 in azole-resistant Candida albicans ATCC […] assessed as ergosterol level at 0.03125 ug/ml incubated for 16 hrs by LC-MS analysis relative to control; design: scale not given: the % may be the effect or the level left; settings: dose 0.03125 µg/ml
[33] = test system: Candida albicans; test: Inhibition of CYP51 in azole-resistant Candida albicans ATCC […] assessed as Obtusifoliol level at 0.125 ug/ml incubated for 16 hrs by LC-MS analysis relative to control; design: scale not given: the % may be the effect or the level left; settings: dose 0.125 µg/ml
[34] = test system: Candida albicans; test: Inhibition of CYP51 in azole-resistant Candida albicans ATCC […] assessed as ergosterol level at 2 ug/ml incubated for 16 hrs by LC-MS analysis relative to control; design: scale not given: the % may be the effect or the level left; settings: dose 2.0 µg/ml
[35] = test system: Candida albicans; test: Inhibition of CYP51 in azole-resistant Candida albicans ATCC […] assessed as ergosterol level at 0.5 ug/ml incubated for 16 hrs by LC-MS analysis relative to control; design: scale not given: the % may be the effect or the level left; settings: dose 0.5 µg/ml
[36] = test system: Candida albicans; test: Inhibition of CYP51 in azole-resistant Candida albicans ATCC […] assessed as Lanosterol level at 8 ug/ml incubated for 16 hrs by LC-MS analysis relative to control; design: scale not given: the % may be the effect or the level left; settings: dose 8.0 µg/ml
[37] = test system: Candida albicans; test: Inhibition of CYP51 in azole-resistant Candida albicans ATCC […] assessed as Obtusifoliol level at 2 ug/ml incubated for 16 hrs by LC-MS analysis relative to control; design: scale not given: the % may be the effect or the level left; settings: dose 2.0 µg/ml
[38] = test system: Candida albicans; test: Inhibition of CYP51 in azole-resistant Candida albicans ATCC […] assessed as Eburicol level at 8 ug/ml incubated for 16 hrs by LC-MS analysis relative to control; design: scale not given: the % may be the effect or the level left; settings: dose 8.0 µg/ml
[39] = test system: Cryptococcus neoformans; test: Antifungal activity against Cryptococcus neoformans CGMCC2.3161 measured after 72 hrs by micro-broth dilution assay; assay type: functional
[40] = test system: Candida albicans; test: Antifungal activity against fluconazole-resistant Candida albicans strain 904 measured after 24 hrs by micro-broth dilution assay; assay type: functional
[41] = test system: Candida albicans; test: Antifungal activity against Candida albicans 901 measured after 24 hrs by micro-broth dilution assay; assay type: functional
[42] = test system: Candida albicans; test: Antifungal activity against fluconazole-resistant Candida albicans 632 measured after 24 hrs by micro-broth dilution assay; assay type: functional
[43] = test system: Candida albicans; test: Antifungal activity against fluconazole-resistant Candida albicans 17 measured after 24 hrs by micro-broth dilution assay; assay type: functional
[44] = test system: Candida albicans; test: Antifungal activity against fluconazole-resistant Candida albicans CaR measured after 24 hrs by micro-broth dilution assay; assay type: functional

With `Clc1ccc(COC(Cn2ccnc2)c2ccc(Cl)cc2Cl)c(Cl)c1` (configuration not stated) [MICONAZOLE] the MIC [1] was 0.5 µg/mL (≈ 1.2 µM), the Activity [2] was 12.4% and the Activity [3] was >128 µg/mL. It also gave an Activity [4] of 6.4%, an MIC [5] of 2 µg/mL (≈ 4.81 µM) and an Activity [6] of 128 µg/mL. For the same compound, the MFC/MIC ratio [7] was 8, the Activity [8] was >128 µg/mL and the Activity [9] was 32 µg/mL. The Activity [10] was 2.9%, the Activity [11] was >128 µg/mL and the MIC [12] was 1 µg/mL (≈ 2.4 µM). The MIC [13] was 0.03 µg/mL (≈ 0.0721 µM), the Activity [14] was 80.7% and the Activity [15] was 128 µg/mL. For the same compound, the MIC [16] was 2 µg/mL (≈ 4.81 µM), the Activity [17] was 14.6% and the Activity [18] was 63.5%. The Activity [19] was 16 µg/mL, the Activity [20] was >128 µg/mL and the MIC [21] was 0.25 µg/mL (≈ 0.601 µM). For the same compound, the Activity [22] was 64.8%, the MIC [23] was 0.5 µg/mL (≈ 1.2 µM) and the Activity [24] was 0%. It also gave a selectivity ratio [25] of 8, an Activity [26] of 14.1% and an Activity [27] of 2.9%. It also gave an Activity [28] of 8.9%, an Activity [29] of 7.3% and an Activity [30] of 6.1%. The MIC [31] was 0.25 µg/mL (≈ 0.601 µM), the Activity [32] was 11.3% and the Activity [33] was 7.2%. For the same compound, the Activity [34] was 5.49%, the Activity [35] was 8.3% and the Activity [36] was 7.8%. For the same compound, the Activity [37] was 9.7%, the Activity [38] was 74.2% and the MIC [39] was 0.5 µg/mL (≈ 1.2 µM).

In the case of `OC(Cn1cncn1)(Cn1cncn1)c1ccc(F)cc1F` [FLUCONAZOLE], the MIC [40] is reported as > 128 µg/mL, the MIC [1] is reported as 32 µg/mL (≈ 104 µM) and the Activity [2] is reported as 9.8%. The Activity [4] was 7.4%, the MIC [5] was > 128 µg/mL and the Activity [10] was 2.9%. The MIC [41] was > 128 µg/mL, the MIC [42] was > 128 µg/mL and the MIC [43] was 128 µg/mL (≈ 418 µM). The MIC [12] was 4 µg/mL (≈ 13.1 µM), the MIC [13] was 1 µg/mL (≈ 3.27 µM) and the Activity [14] was 75.2%. For the same compound, the Activity [17] was 9.2%, the Activity [18] was 6.7% and the MIC [21] was 4 µg/mL (≈ 13.1 µM). For the same compound, the MIC [44] was > 128 µg/mL, the Activity [22] was 70.6% and the MIC [23] was 32 µg/mL (≈ 104 µM). For the same compound, the Activity [24] was 74.8%, the Activity [26] was 7.2% and the Activity [27] was 1.6%. It also gave an Activity [28] of 9.5%, an Activity [29] of 8.3% and an Activity [30] of 9%. The MIC [31] was 4 µg/mL (≈ 13.1 µM), the Activity [32] was 12.2% and the Activity [33] was 11.4%. It also gave an Activity [34] of 5.2%, an Activity [35] of 7.1% and an Activity [36] of 9.4%. For the same compound, the Activity [37] was 17.7%, the Activity [38] was 70.6% and the MIC [39] was 4 µg/mL (≈ 13.1 µM).
